Values quoted from earlier work as cited in patent US6471968B1, “Multifunctional nanodevice platform” (Regents of the University of Michigan, priority 2000, dated 2002).

Tested on: solid tumor models
Settings: solid tumor models for which cisplatin has no effect

Compound: N.N.[Cl][Pt][Cl] [cisplatin]
- in vivo activity in solid tumor models: no effect
